In this assay the target is T1, α4β7 integrin (Homo sapiens, UniProt P13612+P26010).
T1 construct: monitoring the capture of α4β7 integrin expressing cells on a recombinant MadCAM-1 extracellular domain-coated plate; endogenous in cells; host or cells: RPMI8866 cells
T1 sequence (P13612 34-1032): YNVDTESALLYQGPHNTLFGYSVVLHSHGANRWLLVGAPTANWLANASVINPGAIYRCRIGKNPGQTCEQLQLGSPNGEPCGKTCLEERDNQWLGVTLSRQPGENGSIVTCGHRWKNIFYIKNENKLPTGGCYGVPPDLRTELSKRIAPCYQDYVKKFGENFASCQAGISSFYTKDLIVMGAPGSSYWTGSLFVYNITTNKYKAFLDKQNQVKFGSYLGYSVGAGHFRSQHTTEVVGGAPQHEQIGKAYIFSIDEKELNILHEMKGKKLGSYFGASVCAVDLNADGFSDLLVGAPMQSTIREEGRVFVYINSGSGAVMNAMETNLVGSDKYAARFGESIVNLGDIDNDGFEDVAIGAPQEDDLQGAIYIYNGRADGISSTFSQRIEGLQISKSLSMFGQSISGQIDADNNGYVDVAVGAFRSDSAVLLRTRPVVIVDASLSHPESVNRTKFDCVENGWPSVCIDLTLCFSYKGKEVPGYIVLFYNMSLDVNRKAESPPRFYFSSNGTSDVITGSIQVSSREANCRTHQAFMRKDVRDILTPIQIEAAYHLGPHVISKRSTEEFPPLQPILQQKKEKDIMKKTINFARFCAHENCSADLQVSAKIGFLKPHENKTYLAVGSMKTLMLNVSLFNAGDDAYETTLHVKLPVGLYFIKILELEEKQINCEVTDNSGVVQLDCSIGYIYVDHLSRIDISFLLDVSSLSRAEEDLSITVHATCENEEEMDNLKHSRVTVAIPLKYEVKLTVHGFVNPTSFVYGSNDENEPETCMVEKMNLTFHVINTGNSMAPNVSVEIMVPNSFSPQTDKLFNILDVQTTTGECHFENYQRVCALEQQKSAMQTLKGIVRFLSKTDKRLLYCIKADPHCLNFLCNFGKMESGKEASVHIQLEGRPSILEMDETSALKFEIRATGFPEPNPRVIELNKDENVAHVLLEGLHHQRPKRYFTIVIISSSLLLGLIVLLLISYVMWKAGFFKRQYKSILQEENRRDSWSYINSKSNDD
T1 sequence (P26010 20-798): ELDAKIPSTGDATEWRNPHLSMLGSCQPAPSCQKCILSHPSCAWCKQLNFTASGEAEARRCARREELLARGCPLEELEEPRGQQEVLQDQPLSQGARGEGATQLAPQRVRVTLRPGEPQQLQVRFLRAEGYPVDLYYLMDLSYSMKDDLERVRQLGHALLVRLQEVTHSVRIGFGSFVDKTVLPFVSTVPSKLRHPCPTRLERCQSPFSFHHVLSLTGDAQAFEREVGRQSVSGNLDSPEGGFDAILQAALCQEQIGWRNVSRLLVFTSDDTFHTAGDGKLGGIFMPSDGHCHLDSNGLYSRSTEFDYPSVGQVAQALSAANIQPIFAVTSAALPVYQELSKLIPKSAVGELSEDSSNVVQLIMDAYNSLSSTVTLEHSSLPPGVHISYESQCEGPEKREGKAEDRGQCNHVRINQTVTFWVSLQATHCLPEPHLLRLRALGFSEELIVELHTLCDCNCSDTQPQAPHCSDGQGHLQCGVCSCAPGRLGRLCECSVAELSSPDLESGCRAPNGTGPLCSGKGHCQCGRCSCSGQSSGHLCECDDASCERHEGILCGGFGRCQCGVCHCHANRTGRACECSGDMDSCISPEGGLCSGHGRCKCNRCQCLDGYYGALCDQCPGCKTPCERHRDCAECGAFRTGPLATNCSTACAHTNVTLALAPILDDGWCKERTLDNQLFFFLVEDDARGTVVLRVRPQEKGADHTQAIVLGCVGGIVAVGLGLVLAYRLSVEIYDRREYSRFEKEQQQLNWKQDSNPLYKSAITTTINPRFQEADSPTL
Kind of assay: α4β7 Integrin Cell Capture Assay. The assay is classed as cell-based. As to conditions: capture of α4β7 integrin expressing RPMI8866 cells on recombinant MadCAM-1 extracellular domain-coated plate; DMEM+0.5% FBS+0.5 mM MnCl2; read-out: EC50 α4β7. In a few lines: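 RPMI8866 cells in DMEM + 0.5% FBS + 0.5 mM MnCl2 preincubated with compound 1 h at 37 °C, then allowed to bind 30 min at 37 °C to plates coated with MAdCAM-1 extracellular domain (1.0 μg/mL). Cells fixed with glutaraldehyde, Hoechst-stained, imaged and bound cells counted; EC50 from cell count versus concentration.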
Turning to `CCn1cccc(-c2ccc(C[C@H](NC(=O)c3c(Cl)cccc3Cl)C(=O)O)c3ncccc23)c1=O` [Example 22, (S)-2-(2,6-dichlorobenzamido)-3-(5-(1-ethyl-2-oxo-1,2-dihydropyridin-3-yl)quinolin-8-yl)propanoic acid], the concentration for a half-maximal effect (EC50) was 0.123 µM.
As for `Cn1cc(C(F)(F)F)cc(-c2ccc(C[C@H](NC(=O)c3c(Cl)cccc3Cl)C(=O)O)c3ncccc23)c1=O` [Example 23, (S)-2-(2,6-dichlorobenzamido)-3-(5-(1-methyl-2-oxo-5-(trifluoromethyl)-1,2-dihydropyridin-3-yl)quinolin-8-yl)propanoic acid], the figure is 0.0185 µM; as for `O=C(N[C@@H](Cc1ccc(-c2cccc3c2OCCC3)c2cccnc12)C(=O)O)c1c(Cl)cccc1Cl` [Example 24, (S)-3-(5-(chroman-8-yl)quinolin-8-yl)-2-(2,6-dichlorobenzamido)propanoic acid], 0.0495 µM; as for `O=C(N[C@@H](Cc1ccc(-c2ncc3ccccc3c2Br)c2cccnc12)C(=O)O)c1c(Cl)cccc1Cl` [Example 25, (S)-3-(5-(4-bromoisoquinolin-3-yl)quinolin-8-yl)-2-(2,6-dichlorobenzamido)propanoic acid], 0.02 µM.
To `Cc1nn(C)nc1-c1ccc(C[C@H](NC(=O)c2c(Cl)cccc2Cl)C(=O)O)c2ncccc12` [Example 26, (S)-2-(2,6-dichlorobenzamido)-3-(5-(2,5-dimethyl-2H-1,2,3-triazol-4-yl)quinolin-8-yl)propanoic acid] belongs 0.29 µM; to `Cn1ccnc(-c2ccc(C[C@H](NC(=O)c3c(Cl)cccc3Cl)C(=O)O)c3ncccc23)c1=O` [Example 27, (S)-2-(2,6-dichlorobenzamido)-3-(5-(4-methyl-3-oxo-3,4-dihydropyrazin-2-yl)quinolin-8-yl)propanoic acid], 0.0577 µM; to `COc1ncc(F)cc1-c1ccc(C[C@H](NC(=O)c2c(Cl)cccc2Cl)C(=O)O)c2ncccc12` [Example 28, (S)-2-(2,6-dichlorobenzamido)-3-(5-(5-fluoro-2-methoxypyridin-3-yl)quinolin-8-yl)propanoic acid], 0.194 µM.
As for `Cn1cc(Cl)cc(-c2ccc(C[C@H](NC(=O)c3c(Cl)cccc3Cl)C(=O)O)c3ncccc23)c1=O` [Example 29, (S)-3-(5-(5-chloro-1-methyl-2-oxo-1,2-dihydropyridin-3-yl)quinolin-8-yl)-2-(2,6-dichlorobenzamido)propanoic acid], the figure is 0.0167 µM.
On to `Cc1ccn(C)c(=O)c1-c1ccc(CC(NC(=O)c2c(Cl)cccc2Cl)C(=O)O)c2ncccc12` (centres unmarked) [Example 30, 2-(2,6-Dichlorobenzamido)-3-(5-(1,4-dimethyl-2-oxo-1,2-dihydropyridin-3-yl)quinolin-8-yl)propanoic acid], for which the EC50 is 0.0464 µM.
To `Cc1cc(-c2ccc(C[C@H](NC(=O)c3c(Cl)cccc3Cl)C(=O)O)c3ncccc23)c(=O)n(C)c1` [Example 31, (S)-2-(2,6-Dichlorobenzamido)-3-(5-(1,5-dimethyl-2-oxo-1,2-dihydropyridin-3-yl)quinolin-8-yl)propanoic acid] belongs 0.0232 µM; to `COc1ccn(C)c(=O)c1-c1ccc(CC(NC(=O)c2c(Cl)cccc2Cl)C(=O)O)c2ncccc12` (centres unmarked) [Example 32, 2-(2,6-Dichlorobenzamido)-3-(5-(4-methoxy-1-methyl-2-oxo-1,2-dihydropyridin-3-yl)quinolin-8-yl)propanoic acid], 0.006 µM; to `Cc1ccc(-c2ccc(C[C@H](NC(=O)c3c(Cl)cccc3Cl)C(=O)O)c3ncccc23)c(=O)n1C` [Example 33, (S)-2-(2,6-dichlorobenzamido)-3-(5-(1,6-dimethyl-2-oxo-1,2-dihydropyridin-3-yl)quinolin-8-yl)propanoic acid], 0.0122 µM.
Regarding `Cc1c(-c2ccc(C[C@H](NC(=O)c3c(Cl)cccc3Cl)C(=O)O)c3ncccc23)c(=O)n(C)c2ccccc12` [Example 34, (S)-2-(2,6-dichlorobenzamido)-3-(1,4-dimethyl-2-oxo-1,2-dihydro-[3,5′-biquinolin]-8′-yl)propanoic acid], the EC50 was 0.004 µM.
To `COc1cc(F)cc(C(F)(F)F)c1-c1ccc(C[C@H](NC(=O)c2c(Cl)cccc2Cl)C(=O)O)c2ncccc12` [Example 35, (2S)-2-(2,6-dichlorobenzamido)-3-(5-(4-fluoro-2-methoxy-6-(trifluoromethyl)phenyl)quinolin-8-yl)propanoic acid] belongs 0.0535 µM; to `COc1cc(F)cc(Cl)c1-c1ccc(C[C@H](NC(=O)c2c(Cl)cccc2Cl)C(=O)O)c2ncccc12` [Example 36, (2S)-3-(5-(2-chloro-4-fluoro-6-methoxyphenyl)quinolin-8-yl)-2-(2,6-dichlorobenzamido)propanoic acid], 0.115 µM.
`COc1cccc(Cl)c1-c1ccc(C[C@H](NC(=O)c2c(Cl)cccc2Cl)C(=O)O)c2ncccc12` [Example 37, (2S)-3-(5-(2-chloro-6-methoxyphenyl)quinolin-8-yl)-2-(2,6-dichlorobenzamido) propanoic acid]: the EC50 was 0.0656 µM.
`O=C(N[C@@H](Cc1ccc(-c2cccc[n+]2[O-])c2cccnc12)C(=O)O)c1c(Cl)cccc1Cl` [Example 38]: the EC50 came out at 0.212 µM.
Take `Cn1cccc(-c2ccc(C[C@H](NC(=O)c3c(Cl)cccc3Cl)C(=O)O)c3ncccc23)c1=O` [Example 39, (S)-2-(2,6-dichlorobenzamido)-3-(5-(1-methyl-2-oxo-1,2-dihydropyridin-3-yl)quinolin-8-yl)propanoic acid]: the EC50 is 0.074 µM.
For the molecule `Cc1c(-c2ccc(C[C@H](NC(=O)c3c(Cl)cccc3Cl)C(=O)O)c3ncccc23)ncc2ccccc12` [Example 40, (S)-2-(2,6-dichlorobenzamido)-3-(5-(4-methylisoquinolin-3-yl)quinolin-8-yl)propanoic acid], the EC50 was determined as 0.0327 µM.
As for `Cc1c(-c2ccc(C[C@H](NC(=O)c3c(Cl)cccc3Cl)C(=O)O)c3ncccc23)c(=O)n(C)c2cc(F)ccc12` [Example 41, (S)-2-(2,6-dichlorobenzamido)-3-(7-fluoro-1,4-dimethyl-2-oxo-1,2-dihydro-[3,5′-biquinolin]-8′-yl)propanoic acid], the figure is 0.0075 µM.
As for `COc1c(F)cc(F)cc1-c1ccc(C[C@H](NC(=O)c2c(Cl)cccc2Cl)C(=O)O)c2ncccc12` [Example 42, (S)-2-(2,6-dichlorobenzamido)-3-(5-(3,5-difluoro-2-methoxyphenyl)quinolin-8-yl)propanoic acid], the figure is 0.152 µM.
To `COc1c(-c2ccc(C[C@H](NC(=O)c3c(Cl)cccc3Cl)C(=O)O)c3ncccc23)ccc(F)c1F` [Example 43, (S)-2-(2,6-dichlorobenzamido)-3-(5-(3,4-difluoro-2-methoxyphenyl)quinolin-8-yl)propanoic acid] belongs 0.161 µM; to `O=C(N[C@@H](Cc1ccc(-c2c(Cl)cccc2C(F)(F)F)c2cccnc12)C(=O)O)c1c(Cl)cccc1Cl` [Example 44, (2S)-3-(5-(2-chloro-6-(trifluoromethyl)phenyl)quinolin-8-yl)-2-(2,6-dichlorobenzamido)propanoic acid], 0.538 µM.
